Activity calls are given as the source filed them. No cut-off for these calls is given here.
Legend:
Mus musculus [1] = test: Antiinflammatory activity in LPS-induced C57BL/6 mouse model of lung inflammation assessed as reduction in TNF-alpha release in bronchoalveolar lavage fluid at 10 mg/kg, ip administered 1 hr prior to LPS-challenge measured after 3 hrs by ELISA; format: functional, organism-based
Mus musculus [2] = test: Antiinflammatory activity in LPS-induced C57BL/6 mouse model of lung inflammation assessed as reduction in NF-kappaB activation at 10 mg/kg, ip administered 1 hr prior to LPS-challenge measured after 3 hrs by electrophoretic mobility shift assay; format: functional, organism-based
Mus musculus [3] = test: Antiinflammatory activity in LPS-induced C57BL/6 mouse model of lung inflammation assessed as reduction in keratinocyte-derived chemokine release in bronchoalveolar lavage fluid at 10 mg/kg, ip administered 1 hr prior to LPS-challenge measured after 3 hrs by ELISA; format: functional, organism-based
Mus musculus [4] = test: Toxicity in LPS-induced C57BL/6 mouse model of lung inflammation assessed as change in spleen weight at 1 to 100 mg/kg, ip administered 1 hr prior to LPS-challenge measured after 3 hrs relative to control; format: organism-based; settings: in vivo
Mus musculus [5] = test: Toxicity in LPS-induced C57BL/6 mouse model of lung inflammation assessed as change in liver weight at 1 to 100 mg/kg, ip administered 1 hr prior to LPS-challenge measured after 3 hrs relative to control; format: organism-based; settings: in vivo
Mus musculus [6] = test: (§1) Antiinflammatory activity in LPS-induced C57BL/6 mouse model of lung inflammation assessed as decrease in neutrophil infiltration in bronchoalveolar lavage fluid at 100 mg/kg, ip administered 1 hr prior to LPS-challenge measured after 3 hrs by Diff-Quik staining-based coulter particle counter method relative to vehicle-treated control; format: functional; settings: C57BL/6, ip
Mus musculus [7] = test: as §1, with “1 to 10” for “100”, “method” for “method relative to vehicle-treated control”; format: functional, organism-based
PBMC = test: Inhibition of LPS-induced TNF-alpha production in human PBMC at 1 to 100 uM administered prior to LPS-challenge measured after 2 hrs by ELISA; format: functional, cell-based
Mus musculus [8] = test: Toxicity in LPS-induced C57BL/6 mouse model of lung inflammation assessed as change in spleen weight at 10 mg/kg, ip administered 1 hr prior to LPS-challenge measured after 3 hrs relative to control; format: organism-based; settings: in vivo
Mus musculus [9] = test: Antiinflammatory activity in LPS-induced C57BL/6 mouse model of lung inflammation assessed as decrease in neutrophil infiltration in bronchoalveolar lavage fluid at 10 mg/kg, ip administered 1 hr prior to LPS-challenge measured after 3 hrs by Diff-Quik staining-based coulter particle counter method; format: functional, organism-based
Mus musculus [10] = test: Toxicity in LPS-induced C57BL/6 mouse model of lung inflammation assessed as change in liver weight at 10 mg/kg, ip administered 1 hr prior to LPS-challenge measured after 3 hrs relative to control; format: organism-based; settings: in vivo

| Structure (SMILES) | Activity (Mus musculus [1]) | Activity (Mus musculus [2]) | Activity (Mus musculus [3]) | Activity (Mus musculus [4]) | Activity (Mus musculus [5]) | inhibition in vivo at 100 mg/kg (Mus musculus [6]) | Activity (Mus musculus [7]) | inhibition (PBMC) | Activity (Mus musculus [8]) | Activity (Mus musculus [9]) | Activity (Mus musculus [10]) |
| --- | --- | --- | --- | --- | --- | --- | --- | --- | --- | --- | --- |
| CC(=O)Oc1ccccc1C(=O)O | Active | Active | Active | – | – | – | – | – | – | – | – |
| O=C1C2=C(C(=O)c3ccccc31)C1Oc3ccccc3C1CO2 (racemic) | Active | Active | inactive | Non-toxic | Non-toxic | 90% | Active | – | – | – | – |
| CC(C)=CCC1=C(O)C(=O)c2ccccc2C1=O | – | – | – | – | – | – | – | inactive | – | – | – |
| C[C@@H]1C[C@H]2[C@@H]3CCC4=CC(=O)C=C[C@]4(C)[C@@]3(F)[C@@H](O)C[C@]2(C)[C@@]1(O)C(=O)CO [DEXAMETHASONE] | Active | – | Active | – | – | – | – | – | Toxic | Active | Toxic |

— ChEMBL document CHEMBL3826917, “Anti-inflammatory properties of pterocarpanquinone LQB-118 in mice” (Bioorg Med Chem, 2016)
